In ChEMBL document CHEMBL1136961, “Substituted tetrahydrocarbazoles with potent activity against human papillomaviruses” (Bioorg Med Chem Lett, 2009):

Columns and labels:
[1] = system: Human papillomavirus type 16; assay: Antiviral activity against HPV-16 infected in human W12-20850 cells after 4 days by non-radioactive hybrid capture technique; type: functional, organism-based, Human papillomavirus 16
[2] = (§1) Cytotoxicity against human HFF cells; type: cell-based; settings: HFF cells
HFF = assay: as §1; type: cell-based; settings: hff
[3] = Selectivity index, ratio of cytotoxicity against human keratinocytes to antiviral activity against HPV-16; type: toxicity; settings: read-out: Selectivity Index
[4] = Selectivity index, ratio of cytotoxicity against african green monkey Vero cells to antiviral activity against HPV-16; type: toxicity, cell-based; settings: read-out: Selectivity Index
[5] = Half life in rat at 10 mg/kg administered as suspension; type: ADME, organism-based; parameters: dose 10 mg/kg; settings: in vivo
[6] = Volume of distribution in rat at 10 mg/kg administered as suspension; type: ADME, organism-based; parameters: dose 10 mg/kg; settings: in vivo
[7] = Bioavailability in rat at 10 mg/kg administered as suspension; type: ADME, organism-based; settings: in vivo
[8] = Clearance in rat at 10 mg/kg administered as suspension; type: ADME, organism-based; parameters: dose 10 mg/kg; settings: in vivo
[9] = Human papillomavirus 16, W12-20850, 96 h

`Brc1ccc2[nH]c3c(c2c1)CCCC3NC1Cc2ccccc2C1` (racemic) showed an IC50 [1, 9] of 0.12 µM and a CC50 [2] of 30.8 µM.

`C[C@H](N[C@H]1CCCc2c1[nH]c1ccc(Br)cc21)c1ccccc1` (racemic) showed an IC50 ([1]; w12-20850) of 0.03 µM and a CC50 [2] of 22.9 µM.

With `CCN(CC)CCNC1CCCc2c1[nH]c1ccc(C)cc21` (racemic) the IC50 [1, 9] was > 30 µM and the CC50 [2] was > 30 µM.

`Fc1ccc2[nH]c3c(c2c1)CCCC3NCc1ccccc1` (racemic) gave an IC50 [1, 9] of 1.6 µM and a CC50 [2] of 35.9 µM.

`C[C@H](N[C@@H]1CCCc2c1[nH]c1ccc(Br)cc21)c1ccccc1` showed an IC50 [1, 9] of 0.02 µM and a CC50 [2] of 15 µM.

For `Cc1ccc2[nH]c3c(c2c1)CCC[C@@H]3N[C@H](C)c1ccccc1`, the IC50 [1, 9] was 7.1 µM and the CC50 [2] was 41 µM.

For `CC(C)(NC1CCCc2c1[nH]c1ccc(Br)cc21)c1ccccc1` (racemic), the IC50 [1, 9] was 0.6 µM and the CC50 [2] was > 40 µM.

With `COc1ccc2[nH]c3c(c2c1)CCCC3NCc1ccccc1` (racemic) the IC50 [1, 9] was 7.6 µM and the CC50 [2] was 57.9 µM.

In the case of `Cc1ccc2[nH]c3c(c2c1)CCCC3NC(C)c1ccccc1` (racemic), the IC50 [1, 9] is reported as 0.54 µM and the CC50 [2] is reported as 40 µM.

`COC(=O)c1ccc2[nH]c3c(c2c1)CCCC3NCc1ccccc1` (racemic) gave an IC50 [1, 9] of 19.7 µM and a CC50 [2] of 44.5 µM.

With `OCCNC1CCCc2c1[nH]c1ccc(Br)cc21` (racemic) the IC50 [1, 9] was 6.83 µM and the CC50 [2] was 20.1 µM.

Work on `c1ccc(CNC2CCCc3c2[nH]c2ccccc32)cc1` (racemic) yielded an IC50 [1, 9] of 6.7 µM and a CC50 [2] of 40.4 µM.

With `Cc1ccc2[nH]c3c(c2c1)CCC[C@H]3N[C@@H](C)c1ccccc1` the IC50 [1, 9] was 0.2 µM and the CC50 [2] was 29 µM.

With `Brc1ccc2[nH]c3c(c2c1)CCCC3NCc1ccccc1` (racemic) the IC50 [1, 9] was 0.15 µM and the CC50 [2] was 18.8 µM.

For `FC(F)(F)c1ccc2[nH]c3c(c2c1)CCCC3NCc1ccccc1` (racemic), the IC50 [1, 9] was 1 µM and the CC50 [2] was > 100 µM.

With `C[C@H](N[C@H]1CCCc2c1[nH]c1ccc(Br)cc21)c1ccccc1` the IC50 ([1]; w12-20850) was 2.85 µM and the CC50 (HFF) was 28.5 µM.

For `C[C@@H](N[C@H]1CCCc2c1[nH]c1ccc(Br)cc21)c1ccccc1`, the IC50 [1, 9] was > 0.5 µM and the CC50 [2] was > 30 µM.

For `CCNC1CCCc2c1[nH]c1ccc(C)cc21` (racemic), the IC50 [1, 9] was > 20 µM and the CC50 [2] was > 20 µM.

In the case of `Cc1ccc2[nH]c3c(c2c1)CCCC3NC1Cc2ccccc2C1` (racemic), the IC50 [1, 9] is reported as 0.47 µM and the CC50 [2] is reported as 40 µM.

Work on `Cc1ccc2[nH]c3c(c2c1)CCCC3NCc1ccccc1` (racemic) yielded an IC50 [1, 9] of 1.9 µM and a CC50 [2] of 21.3 µM.

Work on `Cc1ccc2[nH]c3c(c2c1)CCC[C@@H]3N[C@@H](C)c1ccccc1` yielded an IC50 [1, 9] of 6.7 µM and a CC50 [2] of 36 µM.

For `C[C@@H](N[C@@H]1CCCc2c1[nH]c1ccc(Br)cc21)c1ccccc1`, the IC50 [1, 9] was 0.03 µM, the CC50 [2] was 9 µM and the selectivity ratio [3] was > 300. The selectivity ratio [4] was > 500, the half-life [5] was 4.4 h and the Vd [6] was 1.9 L/kg. It also gave a bioavailability [7] of 47% and a clearance [8] of 13.4 mL/min/kg.

For `O=[N+]([O-])c1ccc2[nH]c3c(c2c1)CCCC3NCc1ccccc1` (racemic), the IC50 [1, 9] was 0.23 µM and the CC50 [2] was 20.4 µM.

Compound `Clc1ccc2[nH]c3c(c2c1)CCCC3NCc1ccccc1` (racemic) has an IC50 [1, 9] of 0.33 µM and a CC50 [2] of 27.9 µM.

In the case of `Brc1ccc2[nH]c3c(c2c1)CCCC3NCCc1ccccc1` (racemic), the IC50 [1, 9] is reported as 0.41 µM and the CC50 [2] is reported as 11.4 µM.

In the case of `Brc1ccc2c3c([nH]c2c1)C(NCc1ccccc1)CCC3` (racemic), the IC50 [1, 9] is reported as 11.1 µM and the CC50 [2] is reported as > 40 µM.

`Cc1ccc2[nH]c3c(c2c1)CCCC3NCCc1ccccc1` (racemic) showed an IC50 [1, 9] of 2.7 µM and a CC50 [2] of 13.5 µM.

In the case of `Brc1cccc2c3c([nH]c12)C(NCc1ccccc1)CCC3` (racemic), the IC50 [1, 9] is reported as 11.4 µM and the CC50 [2] is reported as > 40 µM.

For `Cc1ccc2[nH]c3c(c2c1)CCCC3NCCO` (racemic), the IC50 [1, 9] was > 30 µM and the CC50 [2] was > 30 µM.

`Cc1ccc2[nH]c3c(c2c1)CCC[C@H]3N[C@H](C)c1ccccc1` gave an IC50 [1, 9] of 0.3 µM and a CC50 [2] of 29 µM.
